Assays:
Solubility (qualitative) = assay type: physicochemical
[1] = system: cyanobacteria Synechococcus 7002; assay: Liquid culture growth inhibition (optical density), salt water cyanobacteria; assay type: cell-based; settings: Synechococcus 7002, residual salt control; untreated control 0.72
Procedure: Strains of green algae, cyanobacteria and E. Coli were used as test organisms. The green algae CD 1 Red and cyanobacteria Synechocystos 6803 were obtained from the collection of Prof. George Bullerjahn. Salt water strain of cyanobacteria Synechococcus 7002 was obtained from the collection of Prof. Michael McKay. E Coli DH 5α was obtained from Invitrogen Inc.
Green algae and cyanobacteria were propagated photoautotrophically in 250 mL Erlenmeyer flasks containing 100 mL of liquid BG-11 culture medium (see Supporting Information). The cultures were kept on a rotating shaker (100 rpm) at 25° C. for 4 days and continuously illuminated with cool-white fluorescent light with a constant light intensity of 5000 lux. The grown culture medium was sterilized in an autoclave at 121° C. and 1.05 kg cm^−2 pressure for 20 min. For the cell experiments, 20 mL aliquots of the BG-11 medium containing the green algal ([cells]initial=5.9×10^7 mL^−1) or cyanobacteria cells ([cells]initial=1.7×10^9 mL^−1) were placed in sterile 50 mL Erlenmeyer flasks. CD 1 Red, Synechocystos 6803 and Synechococcus 7002 were then treated with an aliquot of a stock herbicide solution to bring the final herbicide concentration to 1 mM and incubated for 7 days on a rotator shaker (100 rpm) at 25° C. and continuous light intensity of 5000 lux. Cell counts were correlated with the absorbance and measured as a function of time using a Spectronic 20 Genesis spectrophotometer. As previously reported by Ma et al., 5 the optimal wavelength for monitoring culture growth is 680 nm. Experiments for each herbicide were repeated three times. Control and treated cultures were grown under the same conditions of temperature, photoperiod, and agitation. In each experiment, the inhibition of cell growth in treated cultures was monitored spectrophotometrically and compared to the growth in control samples.

green algae CD 1 Red = assay: organism not typed; assay type: cell-based; settings: 120 h; CD1 Red, herbicide concentration 300 mM, 5 days; read-out: Average radii of the inhibition zones
Procedure: After phototrophical propagation during the 5 days under cool fluorescence light (intensity 5000 lux), the average radii of inhibition zones were measured. Water soaked filter paper circles were used as controls. Experiments for each herbicide concentration were repeated 3 times.

With `C=C(C)C(=O)N(CC(=O)O)CP(=O)(O)O` [MA, N-Methacryloyl-N-(phosphonomethyl)glycine] the “Solubility in organic solvents” value (Solubility (qualitative)) was “poorly soluble in most organic solvents” and the Solubility in water (Solubility (qualitative)) was “soluble in water”.

In the case of `[Cl-].[Na+]` [NaCl, sodium chloride], the “Optical Density at 680 nm after 7 days of media growth, NaCl control experiment” value [1] is reported as “(0.75 NaCl)”.

Compound `C=CC(N)=O` [acrylamide] has a zone of inhibition at 300000 µM (green algae CD 1 Red) of 7.5 mm.

From patent publication US20080317700A1 (priority 2006, published 2008)
